Assay [1] addresses T1, MAPKAPK5 (Homo sapiens, UniProt Q8IW41).
T1 construct: 1 mU MAPKAP-K5
T1 sequence (Q8IW41 1-473): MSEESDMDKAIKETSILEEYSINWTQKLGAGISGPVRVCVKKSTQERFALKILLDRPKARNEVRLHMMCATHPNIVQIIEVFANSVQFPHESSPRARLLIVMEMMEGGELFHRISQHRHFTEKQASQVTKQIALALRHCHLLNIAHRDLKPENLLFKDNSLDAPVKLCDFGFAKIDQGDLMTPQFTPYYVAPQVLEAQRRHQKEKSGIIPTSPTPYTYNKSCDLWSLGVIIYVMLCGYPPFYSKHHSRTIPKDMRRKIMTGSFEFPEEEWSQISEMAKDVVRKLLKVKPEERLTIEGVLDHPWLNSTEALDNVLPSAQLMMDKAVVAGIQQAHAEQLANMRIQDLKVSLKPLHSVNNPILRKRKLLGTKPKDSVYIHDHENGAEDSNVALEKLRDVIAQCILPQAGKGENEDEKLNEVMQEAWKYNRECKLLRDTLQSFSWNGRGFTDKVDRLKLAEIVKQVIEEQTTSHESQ
Description: MAPKAP-K5 assay (FlashPlate, 33P-ATP). In kind it is biochemical. Particulars: 0.6 μM ATP, 30 minutes at room temperature. On the procedure: 3 μM MAPKAP-K5 peptide substrate

In assay [2] the test system is MMP1 expression by SFs. Put plainly: 'MMP assay': MMP1 expression by 'complex trigger' activated synovial fibroblasts (MMP1 ELISA). In kind it is cell-based, human. To be noted: Homo sapiens, Fibroblast, RASFs, 48 hrs. On the procedure: A 384-well format ELISA for measurement of MMP1 is developed. Various primary antibodies are tested, as well as various ELISA protocols. The following protocol is developed and validated to measure MMP1 levels in SF supernatant in 384 well plates: white Lumitrac 600 384 well plates (Greiner) are coated with 2 μg/mL anti-MMP1 antibody MAB1346 (Chemicon). The antibody is diluted in buffer 40 (1.21 g Tris base (Sigma), 0.58 g NaCl (Calbiochem) and 5 ml 10% NaN3 (Sigma) in 1 L milliQ water and adjusted to pH 8.5). After overnight incubation at 4° C., plates are washed with PBS (80 g NaCl, 2 g KCl (Sigma), 11.5 g Na2HPO4.7H2O and 2 g KH2PO4 in 10 L milliQ; pH 7.4) and blocked with 100 μL/well Casein buffer (2% Casein (VWR International) in PBS). Next day, casein buffer is removed from ELISA plates and replaced by 50 μL/well EC buffer (4 g casein, 2.13 g Na2HPO4 (Sigma), 2 g bovine albumin (Sigma), 0.69 g NaH2PO4.H2O (Sigma), 0.5 g CHAPS (Roche), 23.3 g NaCl, 4 mL 0.5 M EDTA pH 8 (Invitrogen), 5 mL 10% NaN3 in 1 L milliQ and adjusted to pH 7.0). 0.25 mM DTT (Sigma) is added to the thawed samples plates. After removal of the EC buffer, 20 μL of sample is transferred to the ELISA plates. After overnight incubation at 4° C. plates are washed twice with PBS and once with PBST (PBS with 0.05% Tween-20 (Sigma)) and incubated with 35 μL/well biotinylated anti-MMP1 antibody solution (R&D). This secondary antibody is diluted in buffer C (0.82 g NaH2PO4.H2O, 4.82 g Na2HPO4, 46.6 g NaCl, 20 g bovine albumin and 4 mL 0.5M EDTA pH 8 in 2 L milliQ and adjusted to pH 7.0) at a concentration of 5 μg/mL. After 2 h of incubation at RT, plates are washed as described above and incubated with 50 μL/well streptavidin-HRP conjugate (Biosource). Streptavidin-HRP conjugate is diluted in buffer C at a concentration of 0.25 μg/mL. After 45 min, plates are washed as described above and incubated for 5 min with 50 μL/well BM Chem ELISA Substrate (Roche). Readout is performed on the Luminoscan Ascent Luminometer (Labsystems) with an integration time of 200 msec or with an Envision reader (Perkin Elmer).
The increase of MMP1 expression by SFs upon treatment with cytokines relevant in the field of RA (TNF-α, IL1β and OSM) or a combination thereof is shown in FIG. 2 as white bars. For this experiment, SFs are seeded in 96 well plates, 3,000 cells/well. 24 h later, the medium is changed to M199 medium supplemented with 1% FBS. One day after the medium change, cytokines or combinations thereof are added to the cultures, each cytokine being added to a final concentration of 25 ng/mL. 72 h after cytokine addition, the supernatant is collected and processed in the MMP1 ELISA as described in the protocol given above. In parallel with this experiment, SFs are triggered, using the same protocol, with the supernatant of THP1 cells (2-fold diluted in M199+1% FBS) treated with the same cytokines or combinations of cytokines for 48 h in M199 medium+1% FBS. The induction of the MMP1 expression by SFs triggered with the supernatants of TNF-α-treated THP1 cells is stronger (>4.5 fold induction) as compared to the SFs triggered with recombinant TNF-α alone (3-fold induction) and almost equals the 5-fold induction obtained by a mixture of 3 purified cytokines (TNF-α, IL1βb, OSM). […] As the role of TNF-α in the RA pathogenesis is validated (TNF-α-blockers such as Infliximab and Etanercept show some efficacy in the treatment of RA patients) and the THP-1 cells are representative for monocytes/macrophages present in the joint of RA patients, the TNF-α-based trigger mixture prepared by contacting THP-1 cells with TNF-α will contain factors present in the joints of RA patients and subsequently is relevant to RA. This TNF-α-based complex trigger, further referred to as the ‘complex trigger’, will further be used as basis for the ‘MMP assay’.
Dexamethasone is shown to dose-dependently reduce amounts of MMP1 produced by complex trigger activated SFs. […]
For orientation: In an ELISA, binding on a coated surface is turned into a signal by an enzyme label.

This is an account of results in patent US8178530B2, “Imidazolopyrazine compounds useful for the treatment of degenerative and inflammatory diseases” (Janssen Pharmaceutica NV, priority 2006, dated 2012).

Broadly, the IC50 is the concentration that inhibits the measured activity by half. Higher therefore signals a need for much substance. A word on the EC50: it is the concentration at which the effect is half-maximal. In assay [1], `O=C(Nc1ccc(Nc2ncc(-c3cn[nH]c3)n3ccnc23)cn1)c1ccccc1` [Compound 183, N-{5-[5-(1H-Pyrazol-4-yl)imidazopyrazin-8-ylamino]pyridin-2-yl}benzamide] came in with an IC50 greater than 1 µM. Besides, in assay [2], the EC50 was in the range of 0.101 to 0.5 µM.
Molecule `CN1CCN(c2ccc(Nc3ncc(-c4ccnc(N)c4)n4ccnc34)cc2)CC1` [Compound 132, [5-(2-Amino-pyridin-4-yl)-imidazo[1,2-a]pyrazin-8-yl]-[4-(4-methyl-piperazin-1-yl)-phenyl]-amine] came in with an IC50 in assay [1] greater than 1 µM. In assay [2], the concentration for a half-maximal effect (EC50) is greater than 1 µM.
Molecule `CN(C)c1cc(-c2cnc(Nc3ccc(N4CCOCC4)cc3)c3nccn23)ccn1` [Compound 111, [5-(2-Dimethylamino-pyridin-4-yl)-imidazo[1,2-a]pyrazin-8-yl]-(4-morpholin-4-yl-phenyl)-amine] displayed a concentration for half-maximal inhibition (IC50) in assay [1] greater than 1 µM. Further, the EC50 in assay [2] is greater than 1 µM.
In assay [1], `NC(=O)c1nc(-c2cnc(Nc3ccc(N4CCOCC4)cc3)c3nccn23)cs1` [Compound 164] returned an IC50 greater than 1 µM. Moreover, the EC50 in assay [2] is greater than 1 µM.
With `CCN(CC)CCNC(=O)c1cccc(Nc2ncc(-c3cn[nH]c3)n3ccnc23)c1` [Compound 50], the IC50 in assay [1] was greater than 1 µM. Also, in assay [2], the EC50 is greater than 1 µM.
As to `Cc1n[nH]cc1-c1cnc(Nc2ccc(C3CCN(CC(N)=O)CC3)cc2)c2nccn12` [Compound 225, 2-(4-{4-[5-(3-Methyl-1H-pyrazol-4-yl)imidazo[1,2-a]pyrazin-8-ylamino]phenyl}piperidin-1-yl)acetamide], the IC50 in assay [1] is 0.501 to 1 µM. For the same molecule, the EC50 in assay [2] is greater than 1 µM.
`CCN(CC)c1ccc(Nc2ncc(-c3cn[nH]c3)n3ccnc23)cc1` [Compound 9] returned an IC50 in assay [1] of 0.501 to 1 µM. For the same molecule, in assay [2], the 50% effective concentration (EC50) is greater than 1 µM.
`CCN(CCO)c1ccc(Nc2ncc(-c3cn[nH]c3)n3ccnc23)c(C)c1` [Compound 12] showed an IC50 in assay [1] greater than 1 µM. The EC50 in assay [2] is greater than 1 µM.
As for `O=C(O)c1ccc(Nc2ncc(-c3cn[nH]c3)n3ccnc23)cc1` [Compound 23], the IC50 in assay [1] is greater than 1 µM. Moreover, the EC50 in assay [2] is greater than 1 µM.
The molecule `CCN(CC)CCNC(=O)c1ccc(Nc2ncc(-c3cn[nH]n3)n3ccnc23)cc1` [Compound 84] registered an IC50 in assay [1] of 0.501 to 1 µM. The EC50 in assay [2] is greater than 1 µM.
For `CN1CCN(c2ccc(Nc3ncc(-c4ccc(C(N)=O)c(N(C)C)c4)n4ccnc34)cc2)CC1` [Compound 126, 2-Dimethylamino-4-{8-[4-(4-methyl-piperazin-1-yl)-phenylamino]-imidazo[1,2-a]pyrazin-5-yl}-benzamide], in that order: greater than 1 µM and greater than 1 µM.
For `O=C(NCc1cccnc1)c1ccc(Nc2ncc(-c3cc[nH]c(=O)c3)n3ccnc23)cc1` [Compound 108, 4-[5-(2-Oxo-1,2-dihydropyridin-4-yl)imidazo[1,2-a]pyrazin-8-ylamino]-N-pyridin-3-ylmethyl benzamide], in that order: 0.501 to 1 µM and 0.101 to 0.5 µM.
Turning to `c1cn2c(-c3cn[nH]c3)cnc(Nc3ccc4[nH]ccc4c3)c2n1` [Compound 27], the 50% inhibitory concentration (IC50) in assay [1] lay within 0.501 to 1 µM. Besides, the EC50 in assay [2] was greater than 1 µM.
For `CCN(CC)CCNC(=O)c1ccc(Nc2ncc(-c3ccc(S(C)(=O)=O)cc3)n3ccnc23)cc1` [Compound 79], in that order: greater than 1 µM and greater than 1 µM.
In assay [1], `NC(=O)c1cc(Nc2ncc(-c3cc(F)c(C(N)=O)c(F)c3)n3ccnc23)ccc1N1CCOCC1` [Compound 175, 4-[8-(3-Carbamoyl-4-morpholin-4-yl-phenylamino)-imidazo[1,2-a]pyrazin-5-yl]-2,6-difluoro-benzamide] returned an IC50 of 0.101 to 0.5 µM. Further, the EC50 in assay [2] fell in the range of 0.501 to 1 µM.
For `O=C(O)c1ccc(-c2cnc(Nc3ccc(N4CCOCC4)cc3)c3nccn23)cc1F` [Compound 39], in that order: greater than 1 µM and greater than 1 µM.
The matching figures for `O=C(O)c1ccc(-c2cnc(Nc3ccc(C(=O)NCCN4CCOCC4)cc3)c3nccn23)cc1` [Compound 54]: greater than 1 µM and greater than 1 µM.
